≈ marks a conversion by molar mass, not a printed value. Like-named read-outs stand apart in the source and are kept apart here.
What was measured:
Haemophilus influenzae [1] = test: MIC by two-fold serial agar dilution, Sensitivity Disk agar-N (Kitasato isolates); type: cell-based; details: Haemophilus influenzae (24)
Yersinia enterocolitica = test: MIC by agar dilution (NCCLS M7-A4), 288 enteropathogenic isolates, gemifloxacin and 15 other antimicrobials; type: cell-based
E. coli = test: microbe, parasite or virus in culture; type: cell-based; details: Escherichia coli
Streptococcus pneumoniae [2] = test: MIC by NCCLS reference broth microdilution, 450 respiratory tract pathogens; type: cell-based; details: Streptococcus pneumoniae
Moraxella catarrhalis [3] = test: as above; type: cell-based
Enterobacter spp. = test: MIC by agar dilution (NCCLS), 322 nosocomial Gram negative isolates, Athens 1998; type: cell-based; details: Enterobacter; n = 57 isolates; read-out: MIC50
Campylobacter jejuni [4] = test: MIC by agar dilution (NCCLS M7-A4), 288 enteropathogenic isolates, gemifloxacin and 15 other antimicrobials; details: for MIC: Campylobacter jejuni
Streptococcus pyogenes = test: MIC by NCCLS reference broth microdilution, 450 respiratory tract pathogens; type: cell-based; details: Streptococcus pyogenes
Salmonella spp. = test: MIC by agar dilution (NCCLS M7-A4), 288 enteropathogenic isolates, gemifloxacin and 15 other antimicrobials; type: cell-based; details: for MIC: Salmonella
Moraxella catarrhalis [5] = test: MIC by two-fold serial agar dilution, Sensitivity Disk agar-N (Kitasato isolates); type: cell-based; details: Moraxella catarrhalis (22)
Acinetobacter spp. = test: MIC by agar dilution (NCCLS), 322 nosocomial Gram negative isolates, Athens 1998; type: cell-based; details: Acinetobacter; n = 38 strains
Pseudomonas aeruginosa = test: as above; type: cell-based; details: n = 57 isolates
Haemophilus influenzae [6] = test: MIC by NCCLS reference broth microdilution, 450 respiratory tract pathogens; type: cell-based; details: for MIC / MIC50: Haemophilus influenzae
Proteus mirabilis = test: MIC by agar dilution (NCCLS), 322 nosocomial Gram negative isolates, Athens 1998; type: cell-based; details: Proteus mirabilis; n = 57 isolates
Klebsiella pneumoniae [7] = test: MIC by NCCLS reference broth microdilution, 450 respiratory tract pathogens; type: cell-based
Aeromonas spp. = test: MIC by agar dilution (NCCLS M7-A4), 288 enteropathogenic isolates, gemifloxacin and 15 other antimicrobials; type: cell-based; details: for MIC: Aeromonas
Streptococcus pneumoniae [8] = test: MIC by two-fold serial agar dilution, Sensitivity Disk agar-N (Kitasato isolates); type: cell-based; details: Streptococcus pneumoniae; for MIC: 18 h, read-out: MIC Range
Klebsiella pneumoniae [9] = test: MIC by agar dilution (NCCLS), 322 nosocomial Gram negative isolates, Athens 1998; type: cell-based; details: n = 56 isolates
P. aeruginosa = test: MIC by two-fold serial agar dilution, quinolone-resistant strains; type: cell-based; details: Pseudomonas aeruginosa
Staphylococcus aureus = test: MIC by NCCLS reference broth microdilution, 450 respiratory tract pathogens; type: cell-based
Escherichia coli = test: MIC by agar dilution (NCCLS), 322 nosocomial Gram negative isolates, Athens 1998; type: cell-based; details: n = 57 isolates
Hafnia alvei = test: MIC by agar dilution (NCCLS M7-A4), 288 enteropathogenic isolates, gemifloxacin and 15 other antimicrobials; type: cell-based; details: for MIC: Hafnia alvei
Campylobacter jejuni [10] = details: Campylobacter jejuni N= 91
Shigella spp. = test: MIC by agar dilution (NCCLS M7-A4), 288 enteropathogenic isolates, gemifloxacin and 15 other antimicrobials; type: cell-based; details: Shigella spp. N= 21
Summary of the method: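 Agar dilution with ~10^4 cfu/spot inoculum; plates incubated aerobically at 35 °C for 24 h, except C. jejuni, held microaerophilically for 48 h. MIC taken as lowest antibiotic concentration with no visible growth.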

[11] = Streptococcus pyogenes (n = 100)
[12] = erythromycin resistant I phenotype [MLSB] (n = 20)
[13] = erythromycin resistant M phenotype (n = 20)
[14] = Haemophilus influenzae (n = 100)
[15] = Klebsiella pneumoniae, Klebsiella pneumoniae (n = 50)

O=C(O)c1cn(C2CC2)c2cc(N3CCNCC3)c(F)cc2c1=O [Ciprofloxacin, ciprofloxacin]
MIC Range (Haemophilus influenzae [1]): 0.008 to 0.031 µg/mL
MIC (Yersinia enterocolitica; 24 h, Yersinia enterocolitica N= 22, read-out: MIC (mg/L) Range): 0.015 to 0.25 mg/L (≈ 0.0453 to 0.754 µM)
MIC (E. coli; E. coli KU1030, mutant type SP): 0.063 µg/mL (≈ 0.19 µM)
MIC (E. coli; E. coli KU1036, mutant type GB (DNA gyrase B)): 0.063 µg/mL (≈ 0.19 µM)
MIC (E. coli; E. coli KU1038, mutant type SP): 0.063 µg/mL (≈ 0.19 µM)
MIC (E. coli; E. coli KU1042, mutant type SP): 0.063 µg/mL (≈ 0.19 µM)
MIC (Streptococcus pneumoniae [2]; Streptococcus pneumoniae (n = 100)): 0.06 to 4 µg/mL (≈ 0.181 to 12.1 µM)
MIC (Streptococcus pneumoniae [2]; multi-drug resistant (n = 16)): 0.5 to 4 µg/mL (≈ 1.51 to 12.1 µM)
MIC (Streptococcus pneumoniae [2]; penicillin intermediate (n = 16)): 0.5 to 2 µg/mL (≈ 1.51 to 6.04 µM)
MIC (Streptococcus pneumoniae [2]; penicillin resistant (n = 18)): 0.5 to 8 µg/mL (≈ 1.51 to 24.1 µM)
MIC50 (Streptococcus pneumoniae [2]; penicillin resistant (n = 18)): 0.5 µg/mL (≈ 1.51 µM)
MIC90 (Streptococcus pneumoniae [2]; penicillin resistant (n = 18)): 8 µg/mL (≈ 24.1 µM)
MIC (Streptococcus pneumoniae [2]; penicillin susceptible (n = 20)): 0.06 to 2 µg/mL (≈ 0.181 to 6.04 µM)
MIC (Moraxella catarrhalis [3]; Moraxella catarrhalis (n = 50)): 0.00375 to 0.06 µg/mL (≈ 0.0113 to 0.181 µM)
MIC50 (Moraxella catarrhalis [3]; Moraxella catarrhalis (n = 50)): 0.03 µg/mL (≈ 0.0905 µM)
MIC (Moraxella catarrhalis [3]; β-lactamase negative (n = 13)): 0.00375 to 0.03 µg/mL (≈ 0.0113 to 0.0905 µM)
MIC50 (Moraxella catarrhalis [3]; β-lactamase negative (n = 13)): 0.015 µg/mL (≈ 0.0453 µM)
MIC (Moraxella catarrhalis [3]; β-lactamase positive (n = 37)): 0.00375 to 0.06 µg/mL (≈ 0.0113 to 0.181 µM)
MIC50 (Moraxella catarrhalis [3]; β-lactamase positive (n = 37)): 0.03 µg/mL (≈ 0.0905 µM)
MIC50 (Enterobacter spp.): ≤ 0.03 µg/mL
MIC (mg/L) Range (Campylobacter jejuni [4]; Campylobacter jejuni N= 91): 0.06 to 128 mg/L
MIC (Streptococcus pyogenes; [11]): 0.12 to 2 µg/mL (≈ 0.362 to 6.04 µM)
MIC90 (Streptococcus pyogenes; [11]): 0.5 µg/mL (≈ 1.51 µM)
MIC (Streptococcus pyogenes; erythromycin resistant C phenotype [MLSB] (n = 20)): 0.25 to 0.5 µg/mL (≈ 0.754 to 1.51 µM)
MIC (Streptococcus pyogenes; [12]): 0.12 to 2 µg/mL (≈ 0.362 to 6.04 µM)
MIC90 (Streptococcus pyogenes; [12]): 0.5 µg/mL (≈ 1.51 µM)
MIC (Streptococcus pyogenes; [13]): 0.12 to 0.5 µg/mL (≈ 0.362 to 1.51 µM)
MIC90 (Streptococcus pyogenes; [13]): 0.5 µg/mL (≈ 1.51 µM)
MIC (Streptococcus pyogenes; fully susceptible (n = 20)): 0.12 to 2 µg/mL (≈ 0.362 to 6.04 µM)
MIC90 (Streptococcus pyogenes; fully susceptible (n = 20)): 0.5 µg/mL (≈ 1.51 µM)
MIC (Streptococcus pyogenes; multi-drug resistant (n = 20)): 0.25 to 1 µg/mL (≈ 0.754 to 3.02 µM)
MIC90 (Streptococcus pyogenes; multi-drug resistant (n = 20)): 0.5 µg/mL (≈ 1.51 µM)
MIC (mg/L) Range (Salmonella spp.; Salmonella spp. N= 106): ≤0.015 to 1 mg/L
MIC50 (Moraxella catarrhalis [5]): 0.031 µg/mL (≈ 0.0936 µM)
MIC Range (Moraxella catarrhalis [5]): 0.031 to 0.063 µg/mL
MIC90 (Acinetobacter spp.): > 64 µg/mL
MIC50 (Pseudomonas aeruginosa): 0.5 µg/mL (≈ 1.51 µM)
MIC90 (Haemophilus influenzae [6]; [14]): 0.015 µg/mL (≈ 0.0453 µM)
MIC (Haemophilus influenzae [6]; [14]): 0.0075 to 0.5 µg/mL (≈ 0.0226 to 1.51 µM)
MIC50 (Haemophilus influenzae [6]; [14]): ≤ 0.00075 µg/mL
MIC (Haemophilus influenzae [6]; β-lactamase negative (n = 80)): 0.0075 to 0.5 µg/mL (≈ 0.0226 to 1.51 µM)
MIC50 (Haemophilus influenzae [6]; β-lactamase negative (n = 80)): ≤ 0.0075 µg/mL
MIC (Haemophilus influenzae [6]; β-lactamase positive (n = 20)): 0.0075 to 0.015 µg/mL (≈ 0.0226 to 0.0453 µM)
MIC50 (Haemophilus influenzae [6]; β-lactamase positive (n = 20)): ≤ 0.0075 µg/mL
MIC50 (Proteus mirabilis): 0.06 µg/mL (≈ 0.181 µM)
MIC Range (Klebsiella pneumoniae [7]; Klebsiella pneumoniae (n = 50)): ≤0.0075 to 1 µg/mL
MIC50 (Klebsiella pneumoniae [7]; [15]): 0.12 µg/mL (≈ 0.362 µM)
MIC90 (Klebsiella pneumoniae [7]; [15]): 0.5 µg/mL (≈ 1.51 µM)
MIC90 (Klebsiella pneumoniae [7]; Klebsiella pneumoniae, extended spectrum β-lactamase negative (n = 30)): 0.03 µg/mL (≈ 0.0905 µM)
MIC90 (Klebsiella pneumoniae [7]; Klebsiella pneumoniae, extended spectrum β-lactamase positive (n = 20)): 0.5 µg/mL (≈ 1.51 µM)
MIC Range (Klebsiella pneumoniae [7]; extended spectrum β-lactamase negative (n = 30)): ≤0.0075 to 0.12 µg/mL
MIC Range (Klebsiella pneumoniae [7]; extended spectrum β-lactamase positive (n = 20)): 0.015 to 0.5 µg/mL
MIC (mg/L) Range (Aeromonas spp.; Aeromonas spp. N= 16): ≤0.015 to 0.06 mg/L
MIC (Streptococcus pneumoniae [8]; Ciprofloxacin-resistant (21)): 8 to 128 µg/mL (≈ 24.1 to 386 µM)
MIC (Streptococcus pneumoniae [8]; Ciprofloxacin-susceptible (94)): 0.25 to 4 µg/mL (≈ 0.754 to 12.1 µM)
MIC (Streptococcus pneumoniae [8]; Erythromycin-resistant (37)): 0.5 to 64 µg/mL (≈ 1.51 to 193 µM)
MIC (Streptococcus pneumoniae [8]; Minocycline-resistant (37)): 0.25 to 64 µg/mL (≈ 0.754 to 193 µM)
MIC (Streptococcus pneumoniae [8]; Penicillin-resistant (19)): 0.5 to 8 µg/mL (≈ 1.51 to 24.1 µM)
MIC50 (Streptococcus pneumoniae [8]; Penicillin-resistant (19), read-out: MIC50): 0.5 µg/mL (≈ 1.51 µM)
MIC50 (Klebsiella pneumoniae [9]; Klebsiella pneumoniae): ≤ 0.03 µg/mL
MIC90 (Klebsiella pneumoniae [9]; Klebsiella pneumoniae): 0.5 µg/mL (≈ 1.51 µM)
MIC Range (Klebsiella pneumoniae [9]): ≤0.03 to 8 µg/mL
MIC (P. aeruginosa): 1 µg/mL (≈ 3.02 µM)
MIC (Staphylococcus aureus; Staphylococcus aureus (n = 50)): 0.06 to 4 µg/mL (≈ 0.181 to 12.1 µM)
MIC50 (Staphylococcus aureus; Staphylococcus aureus (n = 50)): 2 µg/mL (≈ 6.04 µM)
MIC (Staphylococcus aureus; β-lactamase negative (n = 20)): 0.06 to 4 µg/mL (≈ 0.181 to 12.1 µM)
MIC50 (Staphylococcus aureus; β-lactamase negative (n = 20)): 2 µg/mL (≈ 6.04 µM)
MIC50 (Escherichia coli; Escherichia coli): ≤ 0.03 µg/mL
MIC Range (Escherichia coli): ≤0.03 to 64 µg/mL

CO/N=C1\CN(c2nc3c(cc2F)c(=O)c(C(=O)O)cn3C2CC2)CC1CN (racemic) [Gemifloxacin (SB 265805)]
% Susceptible (Hafnia alvei; Hafnia alvei N= 32): 100%
MIC (Hafnia alvei; read-out: MIC (mg/L) 50%): 0.03 mg/L (≈ 0.077 µM)
MIC (Hafnia alvei; read-out: MIC (mg/L) 90%): 0.03 mg/L (≈ 0.077 µM)
% Susceptible (Campylobacter jejuni [10]): 32%
MIC (mg/L) Range (Campylobacter jejuni [10]): 0.03 to 128 mg/L
% Susceptible (Yersinia enterocolitica; Yersinia enterocolitica N= 22): 100%
MIC (mg/L) Range (Yersinia enterocolitica; Yersinia enterocolitica N= 22): ≤0.015 to 0.12 mg/L
MIC (Yersinia enterocolitica; Yersinia enterocolitica, read-out: MIC (mg/L) 50%): 0.03 mg/L (≈ 0.077 µM)
MIC (Yersinia enterocolitica; Yersinia enterocolitica, read-out: MIC (mg/L) 90%): 0.03 mg/L (≈ 0.077 µM)
MIC (Campylobacter jejuni [4]; read-out: MIC (mg/L) 50%): 32 mg/L (≈ 82.2 µM)
MIC (Campylobacter jejuni [4]; read-out: MIC (mg/L) 90%): 128 mg/L (≈ 329 µM)
% Susceptible (Salmonella spp.; Salmonella spp. N= 106): 100%
MIC (mg/L) Range (Salmonella spp.; Salmonella spp. N= 106): ≤0.015 to 0.25 mg/L
MIC (Salmonella spp.; read-out: MIC (mg/L) 50%, Salmonella spp. N= 106): 0.03 mg/L (≈ 0.077 µM)
MIC (Salmonella spp.; read-out: MIC (mg/L) 90%, Salmonella spp. N= 106): 0.12 mg/L (≈ 0.308 µM)
% Susceptible (Shigella spp.): 100%
MIC (mg/L) Range (Shigella spp.): ≤0.015 mg/L
MIC (Shigella spp.; read-out: MIC (mg/L) 50%): ≤ 0.015 mg/L
MIC (Shigella spp.; read-out: MIC (mg/L) 90%): ≤ 0.015 mg/L
% Susceptible (Aeromonas spp.; Aeromonas spp. N= 16): 100%
MIC (Aeromonas spp.; read-out: MIC (mg/L) 50%): ≤ 0.015 mg/L
MIC (Aeromonas spp.; read-out: MIC (mg/L) 90%): 0.03 mg/L (≈ 0.077 µM)

Reference: EP1561465A2, “Methods of use of fluoroquinolone compounds against bacteria” (LG Life Sciences, Ltd., priority 1999, dated 2001)
